According to patent publication EP3575310A1, “PHOSPHONATE DERIVATES OF BETULIN COMPOUNDS WITH ANTIVIRAL ACTIVITY, METHOD FOR THEIR PREPARATION AND THEIR APPLICATION” (Uniwersystet Slaski w Katowicach, priority 2018, dated 2019):
Like-named read-outs stand apart in the source and are kept apart here.

Legend:
[1] = test system: HIV-1 infected H9 lymphocytes; details: cited from earlier work
HIV = details: cited from earlier work
HIV-1 [2] = details: cited from earlier work
HIV-1 (wild type, S1) = test: microbe, parasite or virus in culture; format: cell-based
Procedure: Biological testing of compounds is based on the determination of their cytotoxicity, including determination of CC50 and CC90 (Cytotoxity Concentration) and the assessment of the ability to inhibit viral replication in cell cultures and the determination of IC50 and IC90 (Inhibitory Concentration). Cytotoxicity of compounds is assessed in cultures of established lymphoid CEMT4 cell lines using the MTT method. […] The cultures are run in triplicate for every concentration of the tested compounds. HIV replication inhibition by the studied compounds is assessed in cultures of established lymphoid CEMT4 cell lines. Cells are incubated for 24 hours in a medium (RPMI 10% FBS) supplemented with known concentrations of the tested preparations. The cells are then infected with a laboratory isolate of HIV-1 (wild type, S1). The cultures are prepared in triplicate for every concentration of the tested compound. […] HIV inhibiting ability is determined after 7 days of growing the culture by determining the viral p24 protein in the medium above the cells. […] Inhibition of replication is measured by reducing the amount of p24 protein in cultures enriched in test compounds with respect to the amount of p24 in a culture carried out in a standard medium. The amount of p24 viral protein is determined using an anti-p24 immunoenzymatic test. […]

HIV-1 [3] = details: inhibiting the HIV-1 replication; cited from earlier work
[4] = Cytotoxicity in lymphoid CEMT4 cell cultures, MTT method; format: cell-based; details: human, CEMT4 cells, viability relative to control cultures
Procedure: Biological testing of compounds is based on the determination of their cytotoxicity, including determination of CC50 and CC90 (Cytotoxity Concentration) and the assessment of the ability to inhibit viral replication in cell cultures and the determination of IC50 and IC90 (Inhibitory Concentration). Cytotoxicity of compounds is assessed in cultures of established lymphoid CEMT4 cell lines using the MTT method. […] The cultures are run in triplicate for every concentration of the tested compounds. HIV replication inhibition by the studied compounds is assessed in cultures of established lymphoid CEMT4 cell lines. Cells are incubated for 24 hours in a medium (RPMI 10% FBS) supplemented with known concentrations of the tested preparations. The cells are then infected with a laboratory isolate of HIV-1 (wild type, S1). The cultures are prepared in triplicate for every concentration of the tested compound. Cultures containing identical number of infected cells grown in a medium not containing the tested substances are used as a positive control (100% viral replication). HIV inhibiting ability is determined after 7 days of growing the culture by determining the viral p24 protein in the medium above the cells. The amount of the protein corresponds to the number of newly synthesized viruses. Inhibition of replication is measured by reducing the amount of p24 protein in cultures enriched in test compounds with respect to the amount of p24 in a culture carried out in a standard medium. The amount of p24 viral protein is determined using an anti-p24 immunoenzymatic test. The results are presented in the form of CC50, IC50 and TI (Therapeutic Index) values. Table 1. Results of determination of anti-HIV activity of synthesized compounds and of the reference compound, AZT

Molecule: 3-O-(3,3'-dimethylsuccinyl)betulinic acid [Item 3]
- EC50 [1]: 3.5 nM

Molecule: C=C(C)[C@@H]1CC[C@]2(COC(=O)CC(C)(C)CC(=O)O)CC[C@]3(C)[C@H](CC[C@@H]4[C@@]5(C)CC[C@H](OC(=O)CC(C)(C)CC(=O)O)C(C)(C)[C@@H]5CC[C@]43C)[C@@H]12 [3,28-di-O-(3',3'-dimethylglutaryl)betulin]
- EC50 (HIV): 0.66 nM

Molecule: C=C(C)[C@@H]1CC[C@]2(COC(=O)C(C)(C)CC(=O)O)CC[C@]3(C)[C@H](CC[C@@H]4[C@@]5(C)CC[C@H](OC(=O)CC(C)(C)C(=O)O)C(C)(C)[C@@H]5CC[C@]43C)[C@@H]12 [3-O-(3',3'-dimethylsuccinyl)-28-O-(2",2"-dimethylsuccinyl)betulin]
- EC50 (HIV): 0.87 nM

Molecule: C=C(C)[C@@H]1CC[C@]2(CO)CC[C@]3(C)[C@H](CC[C@@H]4[C@@]5(C)CC[C@H](O)C(C)(C)[C@@H]5CC[C@]43C)[C@@H]12 [Item 1, lup-20(29)-ene-3β,28-diol]
- activity against HIV-1 (HIV-1 [2]): weak activity

Molecule: C=C(C)[C@@H]1CC[C@]2(CO)CC[C@]3(C)[C@H](CC[C@@H]4[C@@]5(C)CC[C@H](O)C(C)(C)[C@@H]5CC[C@]43C)[C@@H]12 [Item 1]
- IC50 (HIV-1 (wild type, S1)): NO

Molecule: C=C(C)[C@@H]1CC[C@]2(C(=O)O)CC[C@]3(C)[C@H](CC[C@@H]4[C@@]5(C)CC[C@H](O)C(C)(C)[C@@H]5CC[C@]43C)[C@@H]12 [Item 2, (3β)-3-hydroxy-lup-20(29)-en-28-oic acid]
- EC50 (HIV-1 [3]): 1600 nM
- activity against HIV-1 (HIV-1 [2]): weak activity

Molecule: C=C(C)[C@@H]1CC[C@]2(C(=O)O)CC[C@]3(C)[C@H](CC[C@@H]4[C@@]5(C)CC[C@H](O)C(C)(C)[C@@H]5CC[C@]43C)[C@@H]12 [Item 2]
- CC50 [4]: 5000 nM

Molecule: C=C(C)[C@@H]1CC[C@]2(C(=O)O)CC[C@]3(C)[C@H](CC[C@@H]4[C@@]5(C)CC[C@H](OC(=O)CC(C)(C)C(=O)O)C(C)(C)[C@@H]5CC[C@]43C)[C@@H]12 [Item 3]
- IC50 (HIV-1 (wild type, S1); Human immunodeficiency virus 1, CEM-T4): 30 nM

Molecule: C=C(CP(=O)(OCC)OCC)[C@@H]1CC[C@]2(C(=O)O)CC[C@]3(C)[C@H](CC[C@@H]4[C@@]5(C)CC[C@H](OC(=O)CC(C)(C)C(=O)O)C(C)(C)[C@@H]5CC[C@]43C)[C@@H]12 [Item 5]
- CC50 [4]: > 69000 nM

Molecule: C=C(CP(=O)(OCC)OCC)[C@@H]1CC[C@]2(C(=O)O)CC[C@]3(C)[C@H](CC[C@@H]4[C@@]5(C)CC[C@H](OC(=O)CCC(C)(C)C(=O)O)C(C)(C)[C@@H]5CC[C@]43C)[C@@H]12 [Item 6]
- CC50 [4]: > 68000 nM

Molecule: C=C(CP(=O)(OCC)OCC)[C@@H]1CC[C@]2(C(=O)O)CC[C@]3(C)[C@H](CC[C@@H]4[C@@]5(C)CC[C@H](OC(=O)CC(C)(C)CC(=O)O)C(C)(C)[C@@H]5CC[C@]43C)[C@@H]12 [Item 7]
- CC50 [4]: > 68000 nM

Molecule: CCOP(=O)(C=C(C)[C@@H]1CC[C@]2(C(=O)O)CC[C@]3(C)[C@H](CC[C@@H]4[C@@]5(C)CC[C@H](OC(=O)CC(C)(C)C(=O)O)C(C)(C)[C@@H]5CC[C@]43C)[C@@H]12)OCC [Item 9]
- CC50 [4]: > 69000 nM

Molecule: CCOP(=O)(C=C(C)[C@@H]1CC[C@]2(C(=O)O)CC[C@]3(C)[C@H](CC[C@@H]4[C@@]5(C)CC[C@H](OC(=O)CCC(C)(C)C(=O)O)C(C)(C)[C@@H]5CC[C@]43C)[C@@H]12)OCC [Item 10]
- CC50 [4]: > 68000 nM

Molecule: CCOP(=O)(C=C(C)[C@@H]1CC[C@]2(C(=O)O)CC[C@]3(C)[C@H](CC[C@@H]4[C@@]5(C)CC[C@H](OC(=O)CC(C)(C)CC(=O)O)C(C)(C)[C@@H]5CC[C@]43C)[C@@H]12)OCC [Item 11]
- CC50 [4]: > 68000 nM

Molecule: Cc1cn([C@H]2C[C@H](N=[N+]=[N-])[C@@H](CO)O2)c(=O)[nH]c1=O [Item 12]
- CC50 [4]: > 280000 nM

Molecule: C=C(C)[C@@H]1CC[C@]2(C(=O)O)CC[C@]3(C)[C@H](CC[C@@H]4[C@@]5(C)CCC(=O)C(C)(C)[C@@H]5CC[C@]43C)[C@@H]12 [betulonic acid]
- activity against HIV-1 (HIV-1 [2]): weak activity

Molecule: CC(C)[C@@H]1CC[C@]2(C(=O)O)CC[C@]3(C)C(CCC4[C@@]5(C)CC[C@H](O)C(C)(C)C5CC[C@]43C)C12 (stereo partly drawn) [dihydrobetulinic acid]
- EC50 (HIV-1 [3]): 900 nM
